The results in this text go back to patent publication US11242334B2, “Heterocyclic compounds as kinase inhibitors, compositions comprising the heterocyclic compound, and methods of use thereof” (JS INNOPHARM (SHANGHAI) LTD, priority 2017, dated 2022).

Test [1] concerns the target T1, human ERK2 (Homo sapiens, UniProt P28482).
T1 construct: recombinantly expressed as GST-tagged full-length protein purified from E. coli; GST; purchased Invitrogen PV3311; host or cells: E. coli
As to the kind of experiment: LanthaScreen TR-FRET enzymatic assay, ERK2. The following applies: IC50 values of ERK2 biochemical activity; 5 μM ATP, 400 nM ATF2-GFP substrate. In outline: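 IC50 values were fitted from percent of DMSO control using a 520/495 nm TR-FRET ratio with terbium anti-pATF2 (pThr71), read after an EDTA stop. The kinase reaction lasted one hour at room temperature, following 15-min compound pre-treatment. It contained 5 μM ATP, 400 nM ATF2-GFP substrate and 20 ng/ml in vitro-activated GST-ERK2.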

For test [2], the system named is Colo205 cell line. As to the kind of experiment: Colo205 cell proliferation assay (MTT assay, WST-8 readout). It is filed as cell-based. The following applies: Homo sapiens; IC50 values of growth inhibition in Colo 205 cells; 72 hours. In outline:
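Growth-inhibition IC50 was derived from WST-8 absorbance at 450 nm (2 h development) after 72 h compound exposure at 37° C. Exposure used final 50 μM–0.005 μM compound in 0.5% DMSO. Colo205 cells had been plated at 5,000/well in RPMI-1640 plus 10% FBS and allowed 24 h to attach.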

T1 sequence (P28482 whole entry): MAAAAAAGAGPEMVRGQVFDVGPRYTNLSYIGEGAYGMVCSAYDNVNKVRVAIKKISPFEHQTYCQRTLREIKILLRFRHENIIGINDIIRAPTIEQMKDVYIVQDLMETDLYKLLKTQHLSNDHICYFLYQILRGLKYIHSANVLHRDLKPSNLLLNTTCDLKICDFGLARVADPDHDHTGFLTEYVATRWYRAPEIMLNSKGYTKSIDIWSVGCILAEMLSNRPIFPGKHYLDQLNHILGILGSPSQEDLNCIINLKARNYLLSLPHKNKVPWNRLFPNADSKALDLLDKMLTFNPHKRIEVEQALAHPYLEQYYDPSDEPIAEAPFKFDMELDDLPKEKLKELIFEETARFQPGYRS

In general, IC50 refers to the concentration that inhibits the measured activity by half. A lower IC50 goes with higher potency. For the compound `O=c1cc(-c2ccc3[nH]nc(-c4ccc(F)cc4)c3c2)ccn1Cc1ccnc(C(F)(F)F)c1` [Example 117, 4-(3-(4-fluorophenyl)-1H-indazol-5-yl)-1-((2-(trifluoromethyl)pyridin-4-yl)methyl)pyridin-2(1H)-one], the half-inhibitory concentration (IC50) was less than 10 nM in test [1] and 1000 to 5000 nM in test [2].
Taken in the same sequence, the figures for `Cc1cc(-c2n[nH]c3ncc(-c4ccn(Cc5ccnc(C(F)(F)F)c5)c(=O)c4)cc23)ccn1` [Example 104, 4-(3-(2-methylpyridin-4-yl)-1H-pyrazolo[3,4-b]pyridin-5-yl)-1-((2-(trifluoromethyl)pyridin-4-yl)methyl)pyridin-2(1H)-one] were 10 to 50 nM and 500 to 1000 nM.
Taken in the same sequence, the figures for `C[C@H](c1cc(F)cc(Br)c1)n1ccc(-c2ccc3[nH]nc(-c4cnn(C)c4)c3c2)cc1=O` (single isomer, unassigned) [Example 96B] were less than 10 nM and no more than 500 nM.
Taken in the same sequence, the figures for `CC(C)Oc1ccc(-c2n[nH]c3ccc(-c4ccn([C@H](CO)c5cccc(Cl)c5)c(=O)c4)cc23)cn1` [Example 17, (S)-1-(1-(3-chlorophenyl)-2-hydroxyethyl)-4-(3-(6-isopropoxypyridin-3-yl)-1H-indazol-5-yl)pyridin-2(1H)-one] were less than 10 nM and 500 to 1000 nM.
With `C[C@@H](c1cc(F)cc(Br)c1)n1ccc(-c2ccc3[nH]nc(-c4cnn(C)c4)c3c2)cc1=O` (single isomer, unassigned) [Example 96A], the half-inhibitory concentration (IC50) in test [1] was less than 10 nM; in test [2], 1000 to 5000 nM.
For the compound `Cc1cc(-c2n[nH]c3ccc(-c4ccn(Cc5ccc6cn[nH]c6c5)c(=O)c4)cc23)ccn1` [Example 94, 1-((1H-indazol-6-yl)methyl)-4-(3-(2-methylpyridin-4-yl)-1H-indazol-5-yl)pyridin-2(1H)-one], the IC50 is less than 10 nM in test [1] and 1000 to 5000 nM in test [2].
For `Cc1cc(-c2n[nH]c3ccc(-c4ccn(Cc5ccc(C#N)cc5)c(=O)c4)cc23)ccn1` [Example 64, 4-((4-(3-(2-methylpyridin-4-yl)-1H-indazol-5-yl)-2-oxopyridin-1(2H)-yl)methyl)benzonitrile] the same measures were less than 10 nM and 1000 to 5000 nM.
As for `O=c1cc(-c2ccc3[nH]nc(-c4ccc(F)cc4)c3c2)ccn1[C@H](CO)c1cc(F)cc(Br)c1` [Example 111, (S)-1-(1-(3-bromo-5-fluorophenyl)-2-hydroxyethyl)-4-(3-(4-fluorophenyl)-1H-indazol-5-yl)pyridin-2(1H)-one], the half-inhibitory concentration (IC50) is less than 10 nM in test [1] and no more than 500 nM in test [2].
Taken in the same sequence, the figures for `Cc1cc(-c2n[nH]c3ccc(-c4ccn(Cc5cc(Br)ccc5F)c(=O)c4)cc23)ccn1` [Example 55, 1-(5-bromo-2-fluorobenzyl)-4-(3-(2-methylpyridin-4-yl)-1H-indazol-5-yl)pyridin-2(1H)-one] were less than 10 nM and no more than 500 nM.
As to `Cc1cc(-c2n[nH]c3ccc(-c4ccn(Cc5ccc(Cl)c(F)c5)c(=O)c4)cc23)ccn1` [Example 62, 1-(4-chloro-3-fluorobenzyl)-4-(3-(2-methylpyridin-4-yl)-1H-indazol-5-yl)pyridin-2(1H)-one], the IC50 was less than 10 nM in test [1] and 500 to 1000 nM in test [2].
For `Cc1cc(-c2n[nH]c3ccc(-c4ccn([C@H](CO)c5cc(F)cc(C(F)(F)F)c5)c(=O)c4)cc23)ccn1` [Example 33, (S)-1-(1-(3-fluoro-5-(trifluoromethyl)phenyl)-2-hydroxyethyl)-4-(3-(2-methylpyridin-4-yl)-1H-indazol-5-yl)pyridin-2(1H)-one] the same measures were less than 10 nM and no more than 500 nM.
As to `O=c1cc(-c2ccc3[nH]nc(-c4cnn(CCO)c4)c3c2)ccn1[C@H](CO)c1ccc(F)c(Cl)c1` [Example 109, (S)-1-(1-(3-chloro-4-fluorophenyl)-2-hydroxyethyl)-4-(3-(1-(2-hydroxyethyl)-1H-pyrazol-4-yl)-1H-indazol-5-yl)pyridin-2(1H)-one], the half-maximal inhibitory concentration (IC50) in test [1] was less than 10 nM; in test [2] it was greater than 5000 nM.
